Experiment: recombinant UMI read abundance after kanamycin selection (control-corrected) (log10(CPM+1)); higher = more efficient recombination; extreme values may be limits of the assay; sequences stand for … in AGTGCAGAGAAAATCGGCCAGTTTTCTCTGCCTGCAGTCCGCATGCCGTGGGACCCCTTGGGTTCTAACCTGTTGCCTAGATTTATGCAGCGGACTGCCTTTCTCCCAAAGTGATAAACCGG…AGGTTGGTTTCACT; site = the 11-nt donor
Procedure: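 Pooled E. coli donor-specificity screen for the IS621 bridge recombinase. Each library member carries a reprogrammed 11-nt donor and a full-length LE bridge RNA expressed in cis from the natural promoter, with a paired donor-binding loop (8-nt LDG + 4-nt RDG) and a target-binding loop fixed to T5. It is co-electroporated with a T5 target plasmid; recombinase is induced with 0.07 mM IPTG and recombinants are selected on kanamycin. UMIs are counted as CPM, averaged over two biological replicates and corrected by the unselected control. Molecule = full bridge RNA written as DNA, built from the T5 scaffold: LDG = donor specificity nt 1-8, RDG = reverse complement of nt 8-11.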
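Also: IS621 bridge recombinase in Escherichia coli cells against a fixed T5 target plasmid.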

| Sequence | recombinant UMI read abundance (log10) |
| --- | --- |
| AAGCACGCATGGACCGGTTTTCCCGGTAATCCGTATTTGGG (site AAGCACACTCC) | 0.0106 |
| AAGCACGCATGGACCGGTTTTCCCGGTAATCCGTATTTGGG (site AAGCACCCTCC) | 0 |
| AAGCACGCATGGACCGGTTTTCCCGGTAATCCGTATTTGGG (site AAGCACGCTAC) | 0.0125 |
| AAGCACGCATGGACCGGTTTTCCCGGTAATCCGTATTTGGG (site AAGCACGCTCA) | 0.0347 |
| AAGCACGCATGGACCGGTTTTCCCGGTAATCCGTATTTGGG (site AAGCACGCTCC) | 0.133 |
| AAGCACGCATGGACCGGTTTTCCCGGTAATCCGTATTTGGG (site AAGCACGCTCG) | 0.00834 |
| AAGCACGCATGGACCGGTTTTCCCGGTAATCCGTATTTGGG (site AAGCACGCTCT) | 0.265 |
| AAGCACGCATGGACCGGTTTTCCCGGTAATCCGTATTTGGG (site AAGCACGCTGC) | 0 |
| AAGCACGCATGGACCGGTTTTCCCGGTAATCCGTATTTGGG (site AAGCACGCTTC) | 0.012 |
| AAGCACGCATGGACCGGTTTTCCCGGTAATCCGTATTTGGG (site AAGCACTCTCC) | 0.0617 |
| AAGCACGCATGGACCGGTTTTCCCGGTAATCCGTATTTGGG (site AAGCAGGCTCC) | 0.0132 |
| AAGCACGCATGGACCGGTTTTCCCGGTAATCCGTATTTGGG (site AAGCATGCTCC) | 0.0182 |
| AAGCACGCATGGACCGGTTTTCCCGGTAATCCGTATTTGGG (site AAGCCCGCTCC) | 0.0231 |
| AAGCACGCATGGACCGGTTTTCCCGGTAATCCGTATTTGGG (site AAGCGCGCTCC) | 0.0213 |
| AAGCACGCATGGACCGGTTTTCCCGGTAATCCGTATTTGGG (site AAGCTCGCTCC) | 0.0309 |
| AAGCACGCATGGACCGGTTTTCCCGGTAATCCGTATTTGGG (site AAGGACGCTCC) | 0.00889 |
| AAGCACGCATGGACCGGTTTTCCCGGTAATCCGTATTTGGG (site AAGTACGCTCC) | 0.0168 |
| AAGCACGCATGGACCGGTTTTCCCGGTAATCCGTATTTGGG (site AATCACGCTCC) | 0.0177 |
| AAGCACGCATGGACCGGTTTTCCCGGTAATCCGTATTTGGG (site ACGCACGCTCC) | 0.0214 |

| Sequence | recombinant UMI read abundance (log10) |
| --- | --- |
| AAGCACGCATGGACCGGTTTTCCCGGTAATCCGTATTTGGG (site AGGCACGCTCC) | 0.0204 |
| AAGCACGCATGGACCGGTTTTCCCGGTAATCCGTATTTGGG (site ATGCACGCTCC) | 0.0113 |
| AAGCACGCATGGACCGGTTTTCCCGGTAATCCGTATTTGGG (site CAGCACGCTCC) | 0.00873 |
| AAGCACGCATGGACCGGTTTTCCCGGTAATCCGTATTTGGG (site GAGCACGCTCC) | 0.0379 |
| AAGCACGCATGGACCGGTTTTCCCGGTAATCCGTATTTGGG (site TAGCACGCTCC) | 0.0044 |
| AAGCGGTCATGGACCGGTTTTCCCGGTAATCCGTATTTGTT (site AAGCGGTCTAA) | 1.4 |
| AAGGATACATGGACCGGTTTTCCCGGTAATCCGTATTTGCC (site AAGGATACTGG) | 2.67 |
| AAGGCCCCATGGACCGGTTTTCCCGGTAATCCGTATTTGGT (site AAGGCCCCTAC) | 0.395 |
| AAGGGATCATGGACCGGTTTTCCCGGTAATCCGTATTTGTT (site AAGGGATCTAA) | 2.95 |
| AAGGGCTCATGGACCGGTTTTCCCGGTAATCCGTATTTGGC (site AAGGGCTCTGC) | 3.63 |
| AAGTAGACATGGACCGGTTTTCCCGGTAATCCGTATTTGCA (site AAGTAGACTTG) | 2.72 |
| AAGTAGACATGGACCGGTTTTCCCGGTAATCCGTATTTGCA (site AGGAAGACTTG) | 0.52 |
| AAGTCGACATGGACCGGTTTTCCCGGTAATCCGTATTTGAA (site AAGTCGACTTT) | 0.435 |
| AAGTCGCCATGGACCGGTTTTCCCGGTAATCCGTATTTGGT (site AAGTCGCCTAC) | 0.0178 |
| AAGTGTGCATGGACCGGTTTTCCCGGTAATCCGTATTTGTC (site AAGTGTGCTGA) | 2.99 |
| AAGTTGTCATGGACCGGTTTTCCCGGTAATCCGTATTTGTC (site AAGTTGTCTGA) | 2.09 |
| AATAAAGCATGGACCGGTTTTCCCGGTAATCCGTATTTGGC (site AATAAAGCTGC) | 1.32 |
| AATAAGACATGGACCGGTTTTCCCGGTAATCCGTATTTGCA (site AATAAGACTTG) | 2.17 |
| AATAAGACATGGACCGGTTTTCCCGGTAATCCGTATTTGCA (site AGGAAGACTTG) | 1.4 |

| Sequence | recombinant UMI read abundance (log10) |
| --- | --- |
| AATACTTCATGGACCGGTTTTCCCGGTAATCCGTATTTGAG (site AATACTTCTCT) | 1.6 |
| AATAGTACATGGACCGGTTTTCCCGGTAATCCGTATTTGTC (site AATAGTACTGA) | 1.89 |
| AATAGTGCATGGACCGGTTTTCCCGGTAATCCGTATTTGCC (site AATAGTGCTGG) | 1.5 |
| AATATGGCATGGACCGGTTTTCCCGGTAATCCGTATTTGCG (site AATATGGCTCG) | 1.22 |
| AATCAATCATGGACCGGTTTTCCCGGTAATCCGTATTTGCC (site AATCAATCTGG) | 1.98 |
| AATCACGCATGGACCGGTTTTCCCGGTAATCCGTATTTGGG (site AAACACGCTCC) | 0.0181 |
| AATCACGCATGGACCGGTTTTCCCGGTAATCCGTATTTGGG (site AACCACGCTCC) | 0.0334 |
| AATCACGCATGGACCGGTTTTCCCGGTAATCCGTATTTGGG (site AAGCACGCTCC) | 0.0135 |
| AATCACGCATGGACCGGTTTTCCCGGTAATCCGTATTTGGG (site AATCACGCTCC) | 0.0109 |
| AATCCATCATGGACCGGTTTTCCCGGTAATCCGTATTTGAT (site AATCCATCTAT) | 0.288 |
| AATCGAACATGGACCGGTTTTCCCGGTAATCCGTATTTGTC (site AATCGAACTGA) | 0.559 |
| AATCGGACATGGACCGGTTTTCCCGGTAATCCGTATTTGAT (site AATCGGACTAT) | 1.01 |
| AATCTCTCATGGACCGGTTTTCCCGGTAATCCGTATTTGGC (site AATCTCTCTGC) | 2.62 |
| AATCTTGCATGGACCGGTTTTCCCGGTAATCCGTATTTGTC (site AATCTTGCTGA) | 1.07 |
| AATGACCCATGGACCGGTTTTCCCGGTAATCCGTATTTGTT (site AATGACCCTAA) | 0.0112 |
| AATGACTCATGGACCGGTTTTCCCGGTAATCCGTATTTGAG (site AATGACTCTCT) | 2.08 |
| AATGACTCATGGACCGGTTTTCCCGGTAATCCGTATTTGGT (site AATGACTCTAC) | 2.1 |
| AATGCAACATGGACCGGTTTTCCCGGTAATCCGTATTTGTG (site AATGCAACTCA) | 0.302 |
| AATGCACCATGGACCGGTTTTCCCGGTAATCCGTATTTGTG (site AATGCACCTCA) | 0.0217 |
